Laboratory results: publication PMC5874177 (Journal of the American Chemical Society, 2018)
Where two headings read alike, the source gives them in different places.

Columns and labels:
[1] = target: T1, tryptophan 2,3-dioxygenase (TDO) (Homo sapiens, UniProt P48775); format: biochemical
[2] = target: T1, tryptophan 2,3-dioxygenase (TDO); format: biochemical; remark: listed apart in the source

T1 sequence (P48775 whole entry): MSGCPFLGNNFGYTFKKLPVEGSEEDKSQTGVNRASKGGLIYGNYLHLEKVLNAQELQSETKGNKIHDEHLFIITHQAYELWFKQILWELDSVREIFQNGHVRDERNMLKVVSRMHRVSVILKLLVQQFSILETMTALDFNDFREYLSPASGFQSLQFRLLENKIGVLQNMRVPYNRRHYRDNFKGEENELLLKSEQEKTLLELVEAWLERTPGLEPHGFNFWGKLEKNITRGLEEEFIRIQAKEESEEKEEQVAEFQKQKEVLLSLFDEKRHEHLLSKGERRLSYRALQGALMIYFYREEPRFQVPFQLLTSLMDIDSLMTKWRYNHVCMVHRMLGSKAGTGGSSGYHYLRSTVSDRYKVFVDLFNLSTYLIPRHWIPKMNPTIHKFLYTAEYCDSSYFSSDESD

| Compound | Ki [1] [µM] | Ki [2] [µM] |
| --- | --- | --- |
| CC(Cc1c[nH]c2ccccc12)C(=O)O (centres unmarked) [compound 1, probe 1] | 320 ± 43 |  |
| O=C(O)C(O)Cc1c[nH]c2ccccc12 (centres unmarked) [compound 2, probe 2] |  | 444 ± 32 |
